# Patent publication US20080113900A1, “Pharmaceutical compositions and therapeutic applications for the use of a synthetic vitamin B12 derivative, glutathionylcobalamin” (priority 2006, published 2008)
# Several values for one entry are separate records, joined by “and”; a condition that tells them apart may be missing. Equal values may be shown once.
# Key:
# [1] = system: SK-HEP-1 cells; experiment: Protection of endothelial cells from homocysteine-induced cell death (MTS assay); type: cell-based, human
# [2] = Decomposition in PBS at 37° C. monitored by UV/Vis spectrophotometry; type: physicochemical
# Experimental: The decomposition of GSCbl, NACCbl, and HcyCbl in PBS at 37° C. was monitored by UV/Vis spectrophotometry.
# [3] = system: U937 (monocytes); experiment: Survival of U937 cells at variable concentration of Hcy; type: cell-based; settings: NACCbl 30 μM, NAC 75 μM, CNCbl 15 μM, folate 30 μM
# Experimental: (§1) Additional cell studies were conducted using Jurkat (T-cells) and U937 (monocyte) cell lines. These experiments confirmed that other cell types are killed by homocysteine, although these cell lines are not as sensitive as the SK-HEP-1 cell line discussed in the experiments above and are thus more resistant to homocysteine. Cells were exposed to NACCbl 30 μM, NAC 75 μM, CNCbl 15 μM, and folate 30 μM. […] In these Figures, the monocytes are N=6 and concentrations are as follows: NACCbl 30 μM, NAC 75 μM, CNCbl 15 μM, Folate 30 μM
# [4] = system: SK-HEP-1 cells; experiment: Protection of endothelial cells from H2O2-induced cell death (MTS assay); type: cell-based, human; parameters: key to Cell viability (MTS assay): cell viability as % survival; settings: for Cell viability (MTS assay): SK-HEP-1, n = 6 replicates
# [5] = system: Jurkat (T-cells); experiment: Survival of Jurkat cells at variable concentration of Hcy; type: cell-based; settings: NACCbl 30 μM, NAC 75 μM, CNCbl 15 μM, folate 30 μM
# Experimental: as §1
# [6] = system: SK-HEP-1 cells; experiment: Effect of high concentrations of NACCbl and GSCbl on SK-HEP-1 cells (MTS assay, 24 hours); type: cell-based, human; settings: for Cell viability by MTS assay (FIG. 13): SK-HEP-1, 3 replicates
# [7] = system: SK-HEP-1 cells; experiment: NACCbl protection from homocysteine with inhibition of Hsp32/Hsp70 by Sn(IX) protoporphyrin, quercitin or siRNA (MTS assay)
smiles,measurement,setting,value
"CC(=O)NC(C[S-])C(=O)O.CC1=C2N=C(C=C3N=C(C(C)=C4[N-]C(C(CC(N)=O)C4(C)CCC(=O)NCC(C)OP(=O)([O-])OC4C(CO)OC(n5cnc6cc(C)c(C)cc65)C4O)C4(C)N=C1C(CCC(N)=O)C4(C)CC(N)=O)C(CCC(N)=O)C3(C)C)C(CCC(N)=O)C2(C)CC(N)=O.[Co+3] [NACCbl, N-acetyl-L-cysteinylcobalamin]",Protection from homocysteine-induced cell death,"[1]; pre-incubation 30 μM two hours, variable homocysteine two hours",protected cells from homocysteine-induced cell death
same,Survival,"[1]; ≧12.5 μM NACCbl, then 30 μM homocysteine 24 hours",80%
same,t1/2,[2],No decomposition within 20 hours
same,Protection of U937 cells from death,[3],"more effective at protecting these cells from death than NAC, CN Cbl or folate"
same,Survival,"[4]; NACCbl 30 μM, above 25 μM H2O2",below 60%
same,Cell viability (MTS assay),"[4]; compound 30 μM two hours, then H2O2 0 μM",102.9844 and 100.8053 and 103.2212 and 107.9583 and 101.8948 and 98.44
same,Cell viability (MTS assay),"[4]; compound 30 μM two hours, then H2O2 0.781 μM a further two hours",93.46 and 102.7949 and 99.24 and 101.3738 and 103.2686 and 95.45
same,Cell viability (MTS assay),"[4]; compound 30 μM two hours, then H2O2 1.56 μM a further two hours",98.53 and 91.38 and 98.72 and 100.1421 and 89.77 and 96.12
same,Cell viability (MTS assay),"[4]; compound 30 μM two hours, then H2O2 3.125 μM a further two hours",88.2 and 93.18 and 92.89 and 99.76 and 92.42 and 91.8
same,Cell viability (MTS assay),"[4]; compound 30 μM two hours, then H2O2 6.25 μM a further two hours",88.2 and 87.59 and 82.14 and 81.57 and 78.07 and 77.12
same,Cell viability (MTS assay),"[4]; compound 30 μM two hours, then H2O2 12.5 μM a further two hours",77.17 and 76.98 and 76.6 and 67.12 and 77.6883 and 74.14
same,Cell viability (MTS assay),"[4]; compound 30 μM two hours, then H2O2 25 μM a further two hours",67.12 and 66.75 and 61.87 and 56.18 and 55.3766 and 55.95
same,Cell viability (MTS assay),"[4]; compound 30 μM two hours, then H2O2 50 μM a further two hours",50.21 and 48.27 and 44.955 and 45.71 and 48.18 and 44.58
same,Cell viability (MTS assay),"[4]; compound 30 μM two hours, then H2O2 100 μM a further two hours",29.99 and 23.97 and 19.56 and 18.901 and 17.53 and 20.89
same,Cell viability (MTS assay),"[4]; compound concentration 1.562, 2 hours, then 25 μM H2O2 24 hours",4.677 and 1.845 and 5.27 and 1.647 and 4.348 and 5.599
same,Cell viability (MTS assay),"[4]; compound concentration 3.125, 2 hours, then 25 μM H2O2 24 hours",26.8116 and 19.5 and 35.84 and 30.5 and 35.24 and 33
same,Protection of Jurkat cells from death,[5],"more effective at protecting these cells from death than NAC, CN Cbl or folate"
same,Survival,"[6]; SK-HEP-1, 10 mM, 24 hours",over 60%
same,Cell viability by MTS assay (FIG. 13),"[6]; compound conc. 0.61, 24 hours",2.572 and 2.498 and 2.473
same,Cell viability by MTS assay (FIG. 13),"[6]; compound conc. 1.22, 24 hours",2.546 and 2.524 and 2.538
same,Cell viability by MTS assay (FIG. 13),"[6]; compound conc. 2.441, 24 hours",2.592 and 2.536 and 2.499
same,Cell viability by MTS assay (FIG. 13),"[6]; compound conc. 4.882, 24 hours",2.532 and 2.463 and 2.457
same,Cell viability by MTS assay (FIG. 13),"[6]; compound conc. 9.765, 24 hours",2.505 and 2.474 and 2.514
same,Cell viability by MTS assay (FIG. 13),"[6]; compound conc. 19.531, 24 hours",2.485 and 2.466 and 2.502
same,Cell viability by MTS assay (FIG. 13),"[6]; compound conc. 39.062, 24 hours",2.503 and 2.474 and 2.453
same,Cell viability by MTS assay (FIG. 13),"[6]; compound conc. 78.125, 24 hours",2.521 and 2.488 and 2.475
same,Cell viability by MTS assay (FIG. 13),"[6]; compound conc. 156.25, 24 hours",2.484 and 2.42 and 2.492
same,Cell viability by MTS assay (FIG. 13),"[6]; compound conc. 312.5, 24 hours",2.409 and 2.301 and 2.437
same,Cell viability by MTS assay (FIG. 13),"[6]; compound conc. 625, 24 hours",2.358 and 2.242 and 2.347
same,Cell viability by MTS assay (FIG. 13),"[6]; compound conc. 1250, 24 hours",2.2 and 2.055 and 2.3
same,Cell viability by MTS assay (FIG. 13),"[6]; compound conc. 2500, 24 hours",1.989 and 1.891 and 2.085
same,Cell viability by MTS assay (FIG. 13),"[6]; compound conc. 5000, 24 hours",2.081 and 2.003 and 2.004
same,Cell viability by MTS assay (FIG. 13),"[6]; compound conc. 10000, 24 hours",1.908 and 1.82 and 1.732
same,"Cell viability by MTS assay (FIG. 11), replicates 1-6","[7]; SK-HEP-1, NACCbl 30 μM two hours with or without Sn(IX)PP/quercetin, then Hcy conc. 200 two hours, label Hcy = Hcy alone",1.378 and 1.167 and 1.33 and 1.456 and 1.491 and 1.537
same,Reduction of the protection by NACCbl on inhibition of Hsp32,"[7]; Sn(IX) protoporphyrin or siRNA, p<0.001",10-20%
same,"Cell viability by MTS assay (FIG. 11), replicates 1-6","[7]; as E45, Hcy conc. 0",2.885 and 2.698 and 2.821 and 2.771 and 2.691 and 2.7
same,"Cell viability by MTS assay (FIG. 11), replicates 1-6","[7]; as E45, Hcy conc. 1.78",2.647 and 2.551 and 2.789 and 2.89 and 2.549 and 2.611
same,"Cell viability by MTS assay (FIG. 11), replicates 1-6","[7]; as E45, Hcy conc. 3.125",2.453 and 2.338 and 2.36 and 2.317 and 2.418 and 2.535
same,"Cell viability by MTS assay (FIG. 11), replicates 1-6","[7]; as E45, Hcy conc. 6.25",2.41 and 2.4 and 2.322 and 2.201 and 2.115 and 2.187
same,"Cell viability by MTS assay (FIG. 11), replicates 1-6","[7]; as E45, Hcy conc. 12.5",2.21 and 2.11 and 2.045 and 2.065 and 2.101 and 2.324
same,"Cell viability by MTS assay (FIG. 11), replicates 1-6","[7]; as E45, Hcy conc. 25",2.1 and 2.19 and 1.879 and 1.937 and 1.779 and 1.837
same,"Cell viability by MTS assay (FIG. 11), replicates 1-6","[7]; as E45, Hcy conc. 50",1.678 and 1.832 and 1.881 and 1.73 and 1.74 and 1.855
same,"Cell viability by MTS assay (FIG. 11), replicates 1-6","[7]; as E45, Hcy conc. 100",1.678 and 1.592 and 1.694 and 1.773 and 1.732 and 1.639
same,Protection by NACCbl on inhibition of both Hsp32 and Hsp70 together,[7]; chemically and directly,totally removed protection
same,Reduction of the protection by NACCbl on inhibition of Hsp70,"[7]; quercitin or siRNA, p<0.001",20-40%
